Assay results as given in patent publication US7838496B2, “Template-fixed peptidomimetics as medicaments against HIV and cancer” (Polyphor AG/Ltd., priority 2003, dated 2010).
*1 amine or outer side, *2 acyl side, *3 side chain or, on linkers, in order; H or OH if unused. Where a SMILES comes first, the peptide text is derived from it. Bridges are numbered along the chain shown (N, C = ends). [ ]: non-standard residue; d: D form. NHCH2(1,3-C6H4)CH2CO = O=C(Cc1cccc(CN[*:1])c1)[*:2]; 2Nal = N[C@@H](Cc1ccc2ccccc2c1)C(=O)O; Cit = NC(=O)NCCC[C@H](N)C(=O)O; Gly(N(CH2)3NH2) = NCCCNCC(=O)O

How the values were obtained:
[1] = system: human red blood cells (hRBC); assay type: cell-based; settings: red cells of human, 1 h
Procedure: The peptides were tested for their hemolytic activity against human red blood cells (hRBC). Fresh hRBC were washed three times with phosphate buffered saline (PBS) by centrifugation for 10 min at 2000×g. Peptides at a concentration of 100 μM were incubated with 20% v/v hRBC for 1 hour at 37-C. The final erythrocyte concentration was approximately 0.9×10^9 cells per mL. A value of 0% resp. 100% cell lysis was determined by incubation of the hRBC in the presence of PBS alone and respectively 0.1% Triton X-100 in H2O. The samples were centrifuged and the supernatant was 20-fold diluted in PBS buffer and the optical density (OD) of the sample at […] was measured. The 100% lyses value (OD540H2O) gave an OD540 of approximately 1.3-1.8. Percent hemolysis was calculated as follows: (OD540peptide/OD540H2O)×100%.

in vitro = assay type: cell-based
Procedure: The cytotoxicity of the peptides to HELA cells (Acc57) and COS-7 cells (CRL-1651) was determined using the MTl reduction assay [see ref. 6 and 7, below]. Briefly the method was as follows: HELA cells and COS-7 cells were seeded at 7.0·10^3 and, respectively, 4.5·10^3 cells per well and grown in 96-well microtiter plates for 24 hours at 37° C. at 5% CO2. At this point, time zero (Tz) was determined by MTT reduction (see below). The supernatant of the remaining wells was discarded and fresh medium and the peptides in serial dilutions of 12.5, 25 and 50 μM were pipeted into the wells. Each peptide concentration was assayed in triplicate. Incubation of the cells was continued for 48 hours at 37° C. at 5% CO2. Wells were then washed once with PBS and subsequently 100 μl MTT reagent (0.5 mg/mL in medium RPMI1640 and, respectively, DMEM) was added to the wells. This was incubated at 37° C. for 2 hours and subsequently the medium was aspirated and 100 μl isopropanol was added to each well. The absorbance at 595 nm of the solubilized product was measured (OD595peptide). For each concentration averages were calculated from triplicates. The percentage of growth was calculated as follows: (OD595peptide-OD595Tz-OD595Empty well)/(OD595Tz-OD595Empty well)×100% and was plotted for each peptide concentration.
The LC 50 values (Lethal Concentration, defined as the concentration that kills 50% of the cells) were determined for each peptide by using the trend line function of EXCEL (Microsoft Office 2000) for the concentrations (50, 25, 12.5 and 0 μM), the corresponding growth percentages and the value −50, (=TREND(C50:C0,%50:%0,−50))
(§1) All fine chemicals came from Merck (D)armstadt, Germany).

[2] = system: 'CCR5' cells / Hut/4-3 cells co-cultivation; assay: FIGS-Assay (co-cultivated cell cultures, beta-galactosidase/ONPG read-out); assay type: cell-based; settings: 48 hours of co-cultivation
Procedure: The assay was performed according to ref. 5, below. Stock dilutions of the peptides (10 mM) were prepared by dissolving in 10 mM Tris-HCl at room temperature. Stock solutions were kept at +4° C., light protected. Working dilutions were prepared extemporaneously by serial dilution in Phosphate Buffered Saline (PBS) and added in a final volume of 10 μL directly to the cell cultures. After 48 hours of co-cultivation the cultures were rinsed with PBS and then exposed to glutaraldehyde/formaldehyde (0.2%/2%) in PBS for five minutes. For photometric quantification the fixed cultures were subsequently incubated with ortho-nitro-phenyl-galactopyranoside (ONPG) as a O-galactosidase substrate, which was enzymatically converted into the chromophore ortho-nitrophenol (ONP). The read out is directly obtained by measuring optical density of wells at 405 nm in an IEMS 96 well-plate reader.
as §1

CXCR4 = target: T1, CXCR4 (Homo sapiens, UniProt P61073); assay: Ca2+ assay: CXCR4 antagonizing activity of the peptides; assay type: cell-based; settings: CXCR4 transfected pre-B cells, Fura-2 fluorescence, 37° C.
T1 construct: expressed in transfected cells
T1 sequence (P61073 whole entry): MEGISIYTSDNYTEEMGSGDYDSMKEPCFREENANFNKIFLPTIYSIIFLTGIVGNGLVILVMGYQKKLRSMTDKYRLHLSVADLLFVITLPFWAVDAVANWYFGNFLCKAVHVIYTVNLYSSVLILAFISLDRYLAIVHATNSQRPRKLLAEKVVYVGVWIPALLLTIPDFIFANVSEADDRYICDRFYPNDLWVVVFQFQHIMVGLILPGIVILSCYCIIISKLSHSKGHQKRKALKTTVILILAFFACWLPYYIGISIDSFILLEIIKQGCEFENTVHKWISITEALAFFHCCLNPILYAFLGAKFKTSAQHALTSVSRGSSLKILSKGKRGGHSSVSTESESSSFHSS
Procedure: 2.2. Ca^2+− assay: CXCR4Antagonizing Activity of the Peptides
3-4 Mio CXCR4 transfected pre-B cells [see references 1, 2 and 3, below] per measurement were resuspended in 200 μl MSB (20 mM 4-(2-Hyddroxyethyl)-piperazin-1-ethansulfonic acid (HEPES), 136 mM NaCl, 4.8 mM KCl and 1 mM CaCl2) containing 5 mM D-Glucose and were loaded with 0.75 μl of 1 mM Fura-2-acetoxymethylester for 17 minutes at 37° C. The cells were washed free from Fura-2-AM with a platelet centrifuge and resuspended in 800 R1 MSB containing 5 mM D-Glucose. The peptides to be administered were diluted to a 100 fold end concentration in MSB/0.2% PPL, and 8 pl were injected. [Ca^2+ ]i-dependent fluorescence change in response to single or sequential stimulation with the peptide was recorded with a fluorimeter at an excitation wavelength of 340 nm and an end emission wavelength of 510 nm [see ref. 4, below]. Measurements were done under continuous stirring at 37° C. The signal intension was calibrated with 3 mM4 CaCl2/1 nM lonomycin (maximal fura-2-acetoxymethylester saturation) and […] MnCl2 (minimal Fura-2-acetoxymethylester saturation) and [Ca^2+]i-changes are presented in % fura-2-acetoxymethylester saturation.
MSB: 20 nmM HEPES, 136 mM NaCl, 4.8 mM KCl, 1 mM CaCl2.2H2O, pH 7.4; Osmolarity: 310 mOsm adjusted with NaOH or HCl, adjusted with dH2O or PBS.
MSB plus: 5 mM D-glucose in MSB (50 mg/50 mL).
Fura 2-acetoxymethylester: 1 mM stock solution in dimethylsulfoxide.

CCRF-CEM cells = CCRF-CEM cells (Homo sapiens, UniProt P61073); settings: read-out: IC50 (μM) Cell migration assay; CCRF-CEM cells migrating to 1 nM SDF-1, 4 hours
Sequence of CCRF-CEM cells (P61073 whole entry): as above
Procedure: BELA cells and CCRF-CEM cells were maintained in RPMI1640 plus 5% FBS, Pen/Strept and 2 mM L-Glutamine. […] All cell lines were grown at 37° C. at 5% CO2. Cell media, media supplements, PBS-buffer, HEPES, Pen/Strept., L-Glutamine and sera were purchased from Gibco (Pailsey, UK). All fine chemicals came from Merck (D)armstadt, Germany).
Chemotactic Assay (Cell Migration Assay)
The chemotactic response of CCRF-CEM cells to a gradient of stromal cell-derived factor 1 a (SDF-1) was measured using disposable assay plates from Neuroprobe (5 μ pore size) (Gaithersburg, Md.), according to the manufacturer's directions and references therein [especially ref. 8, below]. Briefly, one 175 cm^2 flask was washed once with Dubecco's phosphate buffered saline (DPBS), and trypsinized for 10 minutes or until cells had lifted. The trypsin was neutralized by the addition of fresh medium containing serum and the cells were pelleted, washed once in DPBS, and resuspended at 1-0.5×10^7 cells/ml in RPM!+0.5% bovine serum albumin (BSA). 451 μl of cell suspension were mixed with 5μ of 10-fold concentrated PEM peptide diluted in the same assay medium. 35 μl of this mixture were applied to the top of the assay filter. The cells were allowed to migrate (at 37°) into the bottom chamber of the assay plate containing 1 nM SDF-1. After 4 hours, the filter was removed and MTT was added to the migrated cells to a final concentration of 0.5 mg/ml, and incubated for a further 4 hours. After labeling with MTT, all medium was removed and 100 μl of isopropanol+10 mM HCl were added to the cells. The optical absorbance at 595 nm (ABS595) was read using a Tecan Genios plate reader with Magellan software. The number of cells migrated was determined by comparing ABS595 values against a standard curve generated with a known number of cells in the assay plate and were plotted against SDF-1 concentration to obtain a sigmoidal curve and to determine the IC50 values. The values for IC50 were determined using the Trendline function in Microsoft Excel by fitting a logarithmic curve to the averaged datapoints.

| SMILES | Hemolysis at 100 μM [1] | CC50 (in vitro) | FIGS % inhibition at 200 nM [2] | CC50 at 48 h (in vitro) | IC50 (CXCR4) | IC50 (CCRF-CEM cells) | FIGS % inhibition, At 300 nM ([2]; At 300 nM) |
| --- | --- | --- | --- | --- | --- | --- | --- |
| N=C(N)NCCC[C@H](NC(=O)[C@@H]1CSSC[C@H](NC(=O)[C@H](Cc2ccc3ccccc3c2)NC(=O)[C@H](CCCNC(=N)N)NC(=O)[C@@H](N)CCCNC(=N)N)C(=O)N[C@@H](Cc2ccc(O)cc2)C(=O)N[C@@H](CCCCN)C(=O)N[C@H](CCCCN)C(=O)N2CCC[C@H]2C(=O)N[C@@H](Cc2ccc(O)cc2)C(=O)N[C@@H](CCCNC(N)=O)C(=O)N1)C(N)=O [Example 1] (H-RR[2Nal]CYK[dK]PY[Cit]CR-NH2; disulfide 4-11; N-terminus assumed) | 0.4% | 75 µM |  |  |  |  |  |
| N=C(N)NCCC[C@H](NC(=O)[C@@H]1CSSC[C@H](NC(=O)[C@H](Cc2ccc3ccccc3c2)NC(=O)[C@H](CCCNC(=N)N)NC(=O)[C@@H](N)CCCNC(=N)N)C(=O)N[C@@H](Cc2ccc(O)cc2)C(=O)N[C@@H](CCCNC(=N)N)C(=O)N[C@H](CCCCN)C(=O)N2CCC[C@H]2C(=O)N[C@@H](Cc2ccc(O)cc2)C(=O)N[C@@H](CCCNC(N)=O)C(=O)N1)C(N)=O [Example 2] (H-RR[2Nal]CYR[dK]PY[Cit]CR-NH2; disulfide 4-11) | 0.9% |  | 3.8% | 58 µM |  |  |  |
| N=C(N)NCCC[C@H](NC(=O)[C@@H]1CSSC[C@H](NC(=O)[C@H](Cc2ccc3ccccc3c2)NC(=O)[C@H](CCCNC(=N)N)NC(=O)[C@@H](N)CCCNC(=N)N)C(=O)N[C@@H](Cc2ccc(O)cc2)C(=O)N[C@@H](CCCCN)C(=O)N[C@H](CCCCN)C(=O)N2CCC[C@H]2C(=O)N[C@@H](CCCNC(=N)N)C(=O)N[C@@H](CCCNC(N)=O)C(=O)N1)C(N)=O [Example 3] (H-RR[2Nal]CYK[dK]PR[Cit]CR-NH2; disulfide 4-11; N-terminus assumed) | 0.7% |  | 5.7% | 52 µM | 490 nM |  |  |
| N=C(N)NCCC[C@H](NC(=O)[C@@H]1CSSC[C@H](NC(=O)[C@H](Cc2ccc3ccccc3c2)NC(=O)[C@H](CCCNC(=N)N)NC(=O)[C@@H](N)CCCNC(=N)N)C(=O)N[C@@H](Cc2ccc(O)cc2)C(=O)N[C@@H](CCCCN)C(=O)N2CCC[C@@H]2C(=O)N2CCC[C@H]2C(=O)N[C@@H](Cc2ccc(O)cc2)C(=O)N[C@@H](CCCNC(=N)N)C(=O)N1)C(N)=O [Example 4] (H-RR[2Nal]CYK[dP]PYRCR-NH2; disulfide 4-11; N-terminus assumed) | 0.3% |  | 26.0% | > 300 µM | 848 nM |  |  |
| N=C(N)NCCC[C@H](NC(=O)[C@@H]1CSSC[C@H](NC(=O)[C@H](Cc2ccc3ccccc3c2)NC(=O)[C@H](CCCNC(=N)N)NC(=O)[C@@H](N)CCCNC(=N)N)C(=O)N[C@@H](Cc2ccc(O)cc2)C(=O)N[C@@H](CCCNC(=N)N)C(=O)N2CCC[C@@H]2C(=O)N2CCC[C@H]2C(=O)N[C@@H](Cc2ccc(O)cc2)C(=O)N[C@@H](CCCNC(=N)N)C(=O)N1)C(N)=O [Example 5] (H-RR[2Nal]CYR[dP]PYRCR-NH2; disulfide 4-11; N-terminus assumed) | 0.7% |  | 16.4% | 67 µM | 132 nM |  |  |
| N=C(N)NCCC[C@H](NC(=O)[C@@H]1CSSC[C@H](NC(=O)[C@H](Cc2ccc3ccccc3c2)NC(=O)[C@H](CCCNC(=N)N)NC(=O)CNCCCN)C(=O)N[C@@H](Cc2ccc(O)cc2)C(=O)N[C@@H](CCCNC(N)=O)C(=O)N[C@@H](CCCCN)C(=O)N2CCC[C@@H]2C(=O)N2CCC[C@H]2C(=O)N[C@@H](Cc2ccc(O)cc2)C(=O)N[C@@H](CCCNC(=N)N)C(=O)N[C@@H](CCCNC(N)=O)C(=O)N1)C(N)=O [Example 15] (H-[Gly(N(CH2)3NH2)]R[2Nal]CY[Cit]K[dP]PYR[Cit]CR-NH2; disulfide 4-13) |  |  |  |  |  | 0.57 µM |  |
| N=C(N)NCCC[C@H](NC(=O)[C@@H]1CSSC[C@H](NC(=O)[C@H](Cc2ccc3ccccc3c2)NC(=O)[C@H](CCCNC(=N)N)NC(=O)[C@@H](N)CCCNC(=N)N)C(=O)N[C@@H](Cc2ccc(O)cc2)C(=O)N[C@@H](CCCNC(N)=O)C(=O)N[C@@H](CCCCN)C(=O)N2CCC[C@@H]2C(=O)N2CCC[C@H]2C(=O)N[C@@H](Cc2ccc(O)cc2)C(=O)N[C@@H](CCCNC(=N)N)C(=O)N[C@@H](CCCNC(N)=O)C(=O)N1)C(=O)O [Example 20] (H-RR[2Nal]CY[Cit]K[dP]PYR[Cit]CR-OH; disulfide 4-13) | 0.2% |  |  | 138 µM | 15.5 nM |  | At 300 nM: 100% |
| N=C(N)NCCC[C@H](NC(=O)[C@@H]1CSSC[C@H](NC(=O)[C@H](Cc2ccc3ccccc3c2)NC(=O)[C@H](CCCNC(=N)N)NC(=O)[C@@H](N)CCCNC(=N)N)C(=O)N[C@@H](Cc2ccc(O)cc2)C(=O)N[C@@H](CCCNC(N)=O)C(=O)N[C@@H](CCCCN)C(=O)N[C@H]2C[C@H]3C(=O)N[C@@H](CC(=O)N[C@@H](Cc4ccc(O)cc4)C(=O)N[C@@H](CCCNC(=N)N)C(=O)N[C@@H](CCCNC(N)=O)C(=O)N1)C(=O)N3C2)C(N)=O [Example 21] | 0.8% |  | 29.6% | 82 µM |  |  |  |
| N=C(N)NCCC[C@H](NC(=O)[C@@H]1CSSC[C@H](NC(=O)[C@H](Cc2ccc3ccccc3c2)NC(=O)[C@H](CCCNC(=N)N)NC(=O)[C@@H](N)CCCNC(=N)N)C(=O)N[C@@H](Cc2ccc(O)cc2)C(=O)N[C@@H](CCCNC(N)=O)C(=O)N[C@@H](CCCCN)C(=O)NCc2cccc(c2)CC(=O)N[C@@H](Cc2ccc(O)cc2)C(=O)N[C@@H](CCCNC(=N)N)C(=O)N[C@@H](CCCNC(N)=O)C(=O)N1)C(N)=O [Example 22] (H-RR[2Nal]CY[Cit]K[NHCH2(1,3-C6H4)CH2CO]YR[Cit]CR-NH2; disulfide 4-12) | 0.1% |  | 22.5% | 75 µM | 80.3 nM |  |  |
| N=C(N)NCCC[C@H](NC(=O)[C@@H]1CSSC[C@H](NC(=O)[C@H](Cc2ccc3ccccc3c2)NC(=O)[C@H](CCCNC(=N)N)NC(=O)[C@@H](N)CCCNC(=N)N)C(=O)N[C@@H](Cc2ccc(O)cc2)C(=O)N[C@@H](CCCNC(N)=O)C(=O)N[C@@H](CCCCN)C(=O)N2CCC[C@H]2C(=O)N2CCC[C@H]2C(=O)N[C@@H](Cc2ccc(O)cc2)C(=O)N[C@@H](CCCNC(=N)N)C(=O)N[C@@H](CCCNC(N)=O)C(=O)N1)C(N)=O [Example 24] (H-RR[2Nal]CY[Cit]KPPYR[Cit]CR-NH2; disulfide 4-13) | 1.1% |  | 17.1% | 67 µM | 100 nM |  |  |
